Columns and labels:
Assay type in all cases: biochemical
[1] = molecular target: T1, Procollagen C-Proteinase (PCP) (Homo sapiens, UniProt P13497); test: Inhibition of Procollagen C-Proteinase activity, Assay A (continuous fluorescence assay, synthetic peptide substrate); settings: Assay A from Ex. 21; 20 µM substrate, pH 7.5, 30°C
T1 construct: made in house; enzyme purified from culture fluid
T1 sequence (P13497 121-730 isoform P13497-2 limits assumed): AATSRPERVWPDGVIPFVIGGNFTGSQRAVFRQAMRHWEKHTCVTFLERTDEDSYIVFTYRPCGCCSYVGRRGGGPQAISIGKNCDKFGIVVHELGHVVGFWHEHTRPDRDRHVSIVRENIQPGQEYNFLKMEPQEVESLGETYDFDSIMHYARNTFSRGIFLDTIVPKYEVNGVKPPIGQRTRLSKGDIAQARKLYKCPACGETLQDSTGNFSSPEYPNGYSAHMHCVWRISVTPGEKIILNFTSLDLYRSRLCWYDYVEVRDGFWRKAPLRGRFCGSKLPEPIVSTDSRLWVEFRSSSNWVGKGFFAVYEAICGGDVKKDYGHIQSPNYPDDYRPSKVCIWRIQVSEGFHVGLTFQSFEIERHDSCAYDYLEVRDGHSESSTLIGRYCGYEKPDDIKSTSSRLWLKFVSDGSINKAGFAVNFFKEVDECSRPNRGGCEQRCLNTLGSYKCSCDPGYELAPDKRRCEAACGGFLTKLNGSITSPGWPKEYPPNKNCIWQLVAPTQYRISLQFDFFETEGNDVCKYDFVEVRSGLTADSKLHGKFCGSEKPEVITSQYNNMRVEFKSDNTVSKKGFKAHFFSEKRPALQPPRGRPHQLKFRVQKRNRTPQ
Experimental: Human Procollagen C-Proteinase (PCP, also known as Bone Morphogenetic Protein-1 or BMP-1) was cloned from a human fibroblast cDNA library (Stratagene, San Diego, CA). Cloning was performed by PCR based on the reported nucleotide sequence (Wozney, J.M., Rosen,V., Celeste, A.J., Mitsock, L.M., Whitters, M.J., Kriz, R.W., Hewick, R.M., and Wang, E.A. (1989) direct GenBank submission accession M22488, locus HUMBMP1) using Taq polymerase, the 5' primer […] […] […] (SEQ ID NO:1) (Oligo Therapeutics, Inc., Wilsonville, OR), and the 3' reverse strand primer […] TTGAGCTGGTG (SEQ ID NO:2) (Gibco) to yield the entire full-length nucleotide encoding the signal sequence, propeptide, catalytic domain, and all C-terminal domains to the natural translation termination site. The PCR product was purified by gel electrophoresis using the Wizard DNA Purification Kit (Promega, Madison, WI) and ligated directly into the mammalian expression vector pCR3.1 (Invitrogen, Carlsbad, CA) by the TA cloning method. Ligated product was used to transform E coli strain TOP10F' (Invitrogen, Carlsbad, CA) by a standard heat-shock method, and transformants were selected by restriction analysis of purified plasmid using the enzymes HindIII and BamHI. Transformants testing positive for the PCP insert were submitted for sequencing using the Perkin-Elmer / ABI system. Two clones were selected that, when combined, encoded the entire amino acid sequence identical to the one predicted by Wozney et al. The two clones were recombined by restriction using the enzymes BbrI, which cleaved at a naturally occurring internal site, and EcoRV, which cleaved at the junction of the insert and vector. The excised fragments were religated into EcoRV-treated pCR3.1. The resulting construct contained the entire coding sequence identical to that reported by Wozney et al. with the exception of two silent mutations in the signal sequence, G->A at both positions 39 and 45 counting from the translation initiation site (ATG). The completed plasmid construct was amplified in E. coli DH5a and purified using anion exchange chromatography (MaxiPrep columns from Qiagen (Valencia, CA) catalog #12162).
A column packed with Dyematrex Gel Green A (Millipore, Bedford, MA) was equilibrated against 50 mM HEPES, pH7.2, containing 6mM CaCl2 and 0.3M NaCl. After the HT1080 cell culture fluid was loaded, the column was washed with 10 column volumes of the equilibration buffer containing 1.0 M NaCl. PCP was eluted with 50 mM HEPES pH 7.2 containing 3 M NaCl, 2 M urea and 6 mM CaCl2. Eluate fractions were pooled and concentrated to 150-200 ml and dialyzed against 4.0 liters of 50 mM HEPES, 6 mM CaCl2, pH 7.2 overnight. The material was then centrifuged at 5,000 g for 15 minutes to remove precipitates. The PCP containing sample were stored at -20 °C until ready for further processing. The PCP containing sample was thawed and diluted with 50 mM HEPES pH 7.2 containing 6 mM CaCl2, if necessary to bring the NaCl concentration to 0.1-0.15 M. The pH was adjusted to 6.7 with 2 N HCl. The protein solution was filtered through a 0.45 µm filter to remove any precipitate. This preparation was then loaded onto a column packed with Q-Sepharose High Performance (Pharmacia, Piscataway, NJ) which had been equilibrated with 50mM HEPES pH 6.7 containing 6 mM CaCl2 and 0.15 M NaCl. The PCP was not retained in the column and was therefore in the flow through fractions. The PCP was concentrated to 1 mg/ml and used for screening.
Culture fluid from the drosophila cells was concentrated 8 fold and the pH adjusted to 7.1-7.2 if necessary. The culture fluid was centrifuged at 3000 g for 10 minutes and filtered through 0.45 µm filters. The culture fluid was then loaded onto columns packed with carboxy-sulfone packing material (J.T. Baker/Mallinckrodt, Phillipsburg, NJ) which had been equilibrated with 0.1 M NaCl, 50 mM HEPES, 6 mM CaCl2, pH 7.2. […]

collagenase-2 = molecular target: T2, collagenase-2 (Homo sapiens, UniProt P22894); test: Measurement of collagenase activity (hydrolysis of fluorogenic peptide MCA-Pro-Leu-Gly-Leu-DPA-Ala-Arg-NH2); settings: based on inhibitory data from Assay A of Ex. 21 and the Assay of Ex. 22
T2 construct: Human collagenase-2 and gelatinase B were isolated in active form from buffy coats; from tissue; host or cells: human buffy coats (blood leukocytes)
Experimental: (§1) The catalytic domain of human collagenase-1 was expressed as a fusion protein with ubiquitin in E. Coli as described in Gehring, E.R. et al., J. Biol. Chem., 270, 22507, (1995). After purification of the fusion protein, the collagenase-1 catalytic domain was released by treatment with 1mM of aminophenylmercuric acetate (APMA) for 1 hour at 37 °C and then purified by zinc chelate chromatography. Human collagenase-2 and gelatinase B were isolated in active form from buffy coats as described in Mookhtiar, K.A. et al., Biochemistry, 29, 10620, (1990). The propeptide and catalytic domain portion of human collagenase-3 was expressed in E. Coli as an N-terminal fusion protein with ubiquitin. After purification, the catalytic domain was released by treatment with 1 mM APMA for 1 hour at 37 ° C, and then purified by zinc chelate chromatography. Rat collagenase-3 was purified in active form from the culture media of uterine smooth muscle cells as described in Roswit, W.T. et al., Arch. Biochem. Biophys., 225, 285-295 (1983).
(§2) The collagenase-1, collagenase-2 and collagenase-3 inhibitory activity of compounds of this invention in vitro was determined based on the hydrolysis of MCA-Pro-Leu-Gly-Leu-DPA-Ala-Arg-NH2 (SEQ ID NO:8) (Bachem, Inc.) at 37°C as described in Knight, C.G., et al., FEBS Lett., 296(3): 263-266 (1992). The collagenase enzyme was diluted with assay buffer (50 mM Tricine pH 7.5, 200 mM NaCl, 10 mM CaCl2, and 0.005% Brij-35) containing […] of above substrate dissolved in DMSO. Compounds of the invention dissolved in DMSO or only DMSO (control samples) were added such that the final DMSO concentration in all assays was 2.5%. The fluorescence changes were monitored with a Perkin-Elmer LS-50B flourimeter using an excitation wavelength of 328 nm and an emission wavelength of 393 nm.

collagenase-1 = molecular target: T3, collagenase-1 (Homo sapiens, UniProt P03956); test: as above; settings: based on inhibitory data from Assay A of Ex. 21 and the Assay of Ex. 22
T3 construct: the collagenase-1 catalytic domain was released by treatment with 1mM of aminophenylmercuric acetate (APMA); ubiquitin (cleaved yes); made in house; host or cells: E. coli
T3 sequence (P03956 100-269 limits assumed): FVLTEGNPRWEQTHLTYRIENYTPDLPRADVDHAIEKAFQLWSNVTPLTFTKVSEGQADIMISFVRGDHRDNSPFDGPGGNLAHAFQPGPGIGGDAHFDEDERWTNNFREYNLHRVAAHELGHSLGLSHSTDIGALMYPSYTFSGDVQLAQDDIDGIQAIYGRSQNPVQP
Experimental: as §1, §2

collagenase-3 = molecular target: T4, collagenase-3 (Homo sapiens, UniProt P45452); test: as above; settings: based on inhibitory data from Assay A of Ex. 21 and the Assay of Ex. 22
T4 construct: After purification, the catalytic domain was released by treatment with 1 mM APMA for 1 hour; ubiquitin (N, cleaved yes); made in house; host or cells: E. coli
Experimental: as §1, §2

T2 sequence (P22894 101-467): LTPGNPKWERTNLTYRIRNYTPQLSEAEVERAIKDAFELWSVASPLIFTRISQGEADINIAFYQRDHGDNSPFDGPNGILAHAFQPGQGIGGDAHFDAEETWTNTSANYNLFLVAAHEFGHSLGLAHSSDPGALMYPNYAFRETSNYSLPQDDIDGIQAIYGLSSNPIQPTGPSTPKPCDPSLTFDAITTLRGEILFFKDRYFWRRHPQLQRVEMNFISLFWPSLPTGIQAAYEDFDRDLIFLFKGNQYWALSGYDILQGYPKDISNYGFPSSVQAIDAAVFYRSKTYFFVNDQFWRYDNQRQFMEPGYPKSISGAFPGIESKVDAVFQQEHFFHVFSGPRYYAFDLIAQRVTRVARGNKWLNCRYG

COc1cc(C)c(S(=O)(=O)N(Cc2ccc3c(c2)OCO3)[C@H](CO)C(=O)NO)c(C)c1C [Cmpd 5, N-hydroxy-2(R)-[(3,4-methylenedioxybenzyl)-(4-methoxy-2,3,6-trimethylbenzenesulfonyl)amino)-3-hydroxypropionamide]
IC50 [1]: 0.073 µM
Selectivity for PCP/Col-2 (collagenase-2): 123.3
Selectivity for PCP/Col-1 (collagenase-1): 520.5

COc1cc(C)c(S(=O)(=O)N(Cc2ccc3c(c2)OCO3)[C@@H](C(=O)NO)C(C)C)c(C)c1C [Cmpd 12, N-hydroxy-2(R)-[(3,4-methylenedioxybenzyl)-(4-methoxy-2,3,6-trimethylbenzenesulfonyl)amino]-3-methylbutyramide]
IC50 [1]: 0.069 µM
Selectivity for PCP/Col-3 (collagenase-3): 14.5
Selectivity for PCP/Col-2 (collagenase-2): 23.2
Selectivity for PCP/Col-1 (collagenase-1): 89.9

COc1cc(C)c(S(=O)(=O)N(Cc2ccc3[nH]ccc3c2)[C@H](COC(C)(C)C)C(=O)NO)c(C)c1C [Cmpd 15, N-Hydroxy-2(R)-[(4-methoxy-2,5,6-trimethylbenzenesulfonyl)-(1H-indol-5-ylmethyl)amino]-3-tert-butoxypropionamide]
IC50 [1]: 0.066 µM
Selectivity for PCP/Col-2 (collagenase-2): 454.5
Selectivity for PCP/Col-1 (collagenase-1): 515.1

COc1cc(C)c(S(=O)(=O)N(Cc2ccc3c(c2)OCO3)[C@@H](C(=O)NO)C(C)C)c(C)c1 [Cmpd 40, N-hydroxy-2(R)-2-[(3,4-methylenedioxybenzyl)-(4-methoxy-2,6-dimethylbenzene-sulfanyl)amino]-3-methylbutyramide]
IC50 [1]: 0.068 µM
Selectivity for PCP/Col-2 (collagenase-2): 55.9
Selectivity for PCP/Col-1 (collagenase-1): 367.6

COc1cc(C)c(S(=O)(=O)N(Cc2ccc3[nH]cnc3c2)[C@@H](C(=O)NO)C(C)C)c(C)c1C [Cmpd 82]
IC50 [1]: 0.04 µM
Selectivity for PCP/Col-3 (collagenase-3): 1950.0
Selectivity for PCP/Col-2 (collagenase-2): 250.0
Selectivity for PCP/Col-1 (collagenase-1): 1775.0

COc1cc(C)c(S(=O)(=O)N(Cc2ccc3[nH]cc(C(C)=O)c3c2)[C@@H](C(=O)NO)C(C)C)c(C)c1C [Cmpd 126, N-hydroxy-2(R)-[(1H-3-acetyl-indol-5-ylmethyl)-(4-methoxy-2,3,6-trimethylbenzenesulfonyl)amino]-3-methylbutyramide]
IC50 [1]: 0.026 µM

COc1cc(C)c(S(=O)(=O)N(Cc2ccc3c(c2)OCO3)[C@H](CNS(C)(=O)=O)C(=O)NO)c(C)c1 [Cmpd 128, N-hydroxy-2(R)-[(3,4-methylendioxybenzyl)-(2,6-dimethyl-4-methoxybenzenesulfonyl)amino]-3-(methanesulfonyl)amino-propionamide]
IC50 [1]: 0.03 µM

COc1cc(C)c(S(=O)(=O)N(Cc2ccc3[nH]ccc3c2)[C@@H](C(=O)NO)C(C)C)cc1C [Cmpd 145, N-hydroxy-2(R)-2-[(1H-indol-5-ylmethyl)-(4-methoxy-2,5-dimethylbenzenesulfonyl)-amino]-3-methylbutyramide]
IC50 [1]: 0.11 µM
Selectivity for PCP/Col-2 (collagenase-2): 136.4
Selectivity for PCP/Col-1 (collagenase-1): 400.0

Reference: patent EP1149072B1, “SULFONAMIDE HYDROXAMATES” (F. HOFFMANN-LA ROCHE AG, priority 1998, dated 2000)
